Experimental data from patent publication US20090306228A1, “ACTIVE AGENT DELIVERY SYSTEMS AND METHODS FOR PROTECTING AND ADMINISTERING ACTIVE AGENTS” (priority 2000, published 2009).
Where “and” joins values, the source holds several entries; their conditions need not be identical. Identical values can stand only once.

Key:
[1] = In vivo performance of polyglutamic acid-AZT conjugate lot TM-113, plasma AZT by ELISA; design: species or system Sprague-Dawley rats; details: for Plasma concentration of individual rats: Rat #1-#5
Protocol: […]. Polyglutarnic acid-AZT conjugate was given to five rats at a dose containing 15 mg/kg of AZT.

[2] = in vivo; details: male, Sprague-Dawley, rat, plasma, po
[3] = after oral administration; cited from earlier work
[4] = female, Sprague Dawley, rat, in vivo, po
[5] = system: protease (type XIV, pronase); details: Streptomyces griseus, 24 h, pH 8.4
[6] = system: pancreatin; details: pig, 24 h, pH 7.5
[7] = target: pepsin (Sus scrofa, UniProt P00791); details: pig, 4 h, pH 1.2
[8] = In vivo performance of polyserine-naltrexone conjugate lot BB-301, serum naltrexone by ELISA; details: oral capsule; for Serum concentration of individual rats: 3.6 mg naltrexone (12.9 mg conjugate BB-301), Rat #1-#5
[9] = In vivo performance of polyserine-naltrexone conjugate lot BB-272, serum naltrexone by ELISA; details: for Serum concentration of individual rats: 3.6 mg naltrexone (12 mg conjugate BB-272), Rat #1-#4
Protocol: No excipients were added to the capsules.

[10] = male, Sprague-Dawley, rat, plasma, po, 15 mg/kg
[11] = male, Sprague Dawley, rat, in vivo, po, 3.6 mg

pepsin, sequence (P00791 60-385): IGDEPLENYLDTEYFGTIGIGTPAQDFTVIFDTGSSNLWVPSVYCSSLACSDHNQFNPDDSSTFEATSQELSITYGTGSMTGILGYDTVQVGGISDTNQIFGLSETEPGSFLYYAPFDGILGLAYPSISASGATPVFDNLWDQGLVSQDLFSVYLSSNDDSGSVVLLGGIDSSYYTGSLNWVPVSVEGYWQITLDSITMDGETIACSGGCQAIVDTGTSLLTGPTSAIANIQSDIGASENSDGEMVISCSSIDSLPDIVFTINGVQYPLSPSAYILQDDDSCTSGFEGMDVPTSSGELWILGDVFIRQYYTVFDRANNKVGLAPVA

Q: For Cc1cn([C@H]2C[C@H](N=[N+]=[N-])[C@@H](CO)O2)c(=O)[nH]c1=O [AZT, 3′-azido-3′-deoxythymidine], which AUC(0-t) [1, 10] is on record?
A: 4040 ng·h/mL

Q: And the Cmax [1, 10]?
A: 2390 ng/mL

Q: And the Tmax [1, 10]?
A: 30 min

Q: What about the concentration at 0 h ([1]; male, Sprague-Dawley, rat, plasma, po, 15 mg/kg, 15 mg/kg of AZT, lot TM-113, 0 hours) of the same compound?
A: 7 ng/mL

Q: What about the concentration at 0.5 h ([1]; male, Sprague-Dawley, rat, plasma, po, 15 mg/kg, 15 mg/kg of AZT, lot TM-113, 0.5 hours) of the same compound?
A: 2390 ng/mL

Q: What about the concentration at 3 h ([1]; male, Sprague-Dawley, rat, plasma, po, 15 mg/kg, 15 mg/kg of AZT, lot TM-113, 3 hours) of the same compound?
A: 223 ng/mL

Q: And the concentration at 5 h ([1]; male, Sprague-Dawley, rat, plasma, po, 15 mg/kg, 15 mg/kg of AZT, lot TM-113, 5 hours)?
A: 49 ng/mL

Q: What about the concentration at 8 h ([1]; male, Sprague-Dawley, rat, plasma, po, 15 mg/kg, 15 mg/kg of AZT, lot TM-113, 8 hours) of the same compound?
A: 11 ng/mL

Q: And the concentration at 12 h ([1]; male, Sprague-Dawley, rat, plasma, po, 15 mg/kg, 15 mg/kg of AZT, lot TM-113, 12 hours)?
A: 36 ng/mL

Q: What about the concentration at 24 h ([1]; male, Sprague-Dawley, rat, plasma, po, 15 mg/kg, 15 mg/kg of AZT, lot TM-113, 24 hours) of the same compound?
A: 8 ng/mL

Q: And the “time at which AZT plasma levels spiked” value ([1]; oral, 15 mg/kg of AZT)?
A: 0.5 h

Q: And the “time for which plasma levels of AZT remained elevated” value ([1]; oral, 15 mg/kg of AZT, lot TM-113)?
A: < 3 h

Q: What about the “Plasma concentration of individual rats” value ([1]; oral, 15 mg/kg of AZT, lot TM-113, 0 hours, 15 mg/kg) of the same compound?
A: 6 ng/mL and 4 ng/mL and 2 ng/mL and 9 ng/mL and 14 ng/mL

Q: And the “Plasma concentration of individual rats” value ([1]; oral, 15 mg/kg of AZT, lot TM-113, 0.5 hours, 15 mg/kg)?
A: 4520 ng/mL and 2108 ng/mL and 2657 ng/mL and 1978 ng/mL and 690 ng/mL

Q: And the “Plasma concentration of individual rats” value ([1]; oral, 15 mg/kg of AZT, lot TM-113, 3 hours, 15 mg/kg)?
A: 598 ng/mL and 132 ng/mL and 200 ng/mL and 94 ng/mL and 93 ng/mL

Q: What about the “Plasma concentration of individual rats” value ([1]; oral, 15 mg/kg of AZT, lot TM-113, 5 hours, 15 mg/kg) of the same compound?
A: 79 ng/mL and 25 ng/mL and 78 ng/mL and 26 ng/mL and 39 ng/mL

Q: What about the “Plasma concentration of individual rats” value ([1]; oral, 15 mg/kg of AZT, lot TM-113, 8 hours, 15 mg/kg) of the same compound?
A: 16 ng/mL and 18 ng/mL and 12 ng/mL and 4 ng/mL and 5 ng/mL

Q: And the “Plasma concentration of individual rats” value ([1]; oral, 15 mg/kg of AZT, lot TM-113, 12 hours, 15 mg/kg)?
A: 101 ng/mL and 38 ng/mL and 28 ng/mL and 2 ng/mL and 6 ng/mL

Q: What about the “Plasma concentration of individual rats” value ([1]; oral, 15 mg/kg of AZT, lot TM-113, 24 hours, 15 mg/kg) of the same compound?
A: 13 ng/mL and 12 ng/mL and 4 ng/mL and 8 ng/mL and 3 ng/mL

Q: And the Tmax [2]?
A: 30 min

Q: Which “time until an effect is evident” value [3] does the source give for CC1OC(OC2C(O)CC(OC3C(O)CC(O[C@H]4CCC5(C)C(CCC6[C@@H]5CC(O)C5(C)[C@@H](C7=CC(=O)OC7)CCC65O)C4)OC3C)OC2C)CC(O)C1O (stereo partly drawn) [Digoxin, digoxin] here?
A: 1 to 2 h

Q: For NS(=O)(=O)c1cc(C(=O)O)c(NCc2ccco2)cc1Cl [Furosemide], which “9 hour serum level as percent of its 3 hour level” value [4] is on record?
A: 59.8%

Q: What does the source list for Cc1ccc(C)c(OCCCC(C)(C)C(=O)O)c1 [Gemfibrozil, 5-(2,5-dimethylphenoxy)-2,2-dimethylpentanoic acid]?
A: Pronase (release of active agent from peptide conjugate) [5]: 2%; Intestine (simulator, release of active agent from peptide conjugate) [6]: 3.60%; Stomach (simulator, release of active agent from peptide conjugate) [7]: 0%

Q: Which results are given for Nc1ccc(O)c(C(=O)O)c1 [Mesalamine, 5-amino-2-hydroxybenzoic acid]?
A: Pronase (release of active agent from peptide conjugate) [5]: 46%; Intestine (simulator, release of active agent from peptide conjugate) [6]: 10%; Stomach (simulator, release of active agent from peptide conjugate) [7]: 11%

Q: For CCN(CC)CCNC(=O)c1cc(Cl)c(N)cc1OC [Metoclopramide], which “Pronase (release of active agent from peptide conjugate)” value [5] is on record?
A: 6.50%

Q: And the “Intestine (simulator, release of active agent from peptide conjugate)” value [6]?
A: 95.20%

Q: What about the “Stomach (simulator, release of active agent from peptide conjugate)” value [7] of the same compound?
A: 0%

Q: For Cc1ncc([N+](=O)[O-])n1CCO [Metronidazole], which “Pronase (release of active agent from peptide conjugate)” value [5] is on record?
A: 28.90%

Q: And the “Intestine (simulator, release of active agent from peptide conjugate)” value [6]?
A: 64.30%

Q: What about the “Stomach (simulator, release of active agent from peptide conjugate)” value [7] of the same compound?
A: 20.20%

Q: What does the source list for O=C1CC[C@@]2(O)[C@H]3Cc4ccc(O)c5c4[C@@]2(CCN3CC2CC2)[C@H]1O5 [Naltrexone]?
A: Serum concentration of individual rats ([8]; 0.5 hours): 39 ng/mL and 141 ng/mL and 128 ng/mL and 126 ng/mL and 142 ng/mL; Serum concentration of individual rats ([8]; 3 hours): 91 ng/mL and 62 ng/mL and 44 ng/mL and 30 ng/mL and 46 ng/mL; Serum concentration of individual rats ([8]; 5 hours): 45 ng/mL and 193 ng/mL and 16 ng/mL and 8 ng/mL and 19 ng/mL; Serum concentration of individual rats ([8]; 8 hours): 19 ng/mL and 6 ng/mL and 2 ng/mL and 5 ng/mL and 4 ng/mL; Serum concentration of individual rats ([8]; 12 hours): 3 ng/mL (2×) and 1 ng/mL and 2 ng/mL (2×); Serum concentration of individual rats ([8]; 15 hours): 4 ng/mL and 1 ng/mL (2×) and 2 ng/mL (2×); Serum concentration of individual rats ([8]; 24 hours): 2 ng/mL (2×) and 1 ng/mL (2×) and 3 ng/mL; time at which naltrexone serum levels spiked ([8]; equal dose, lot BB-301): 0.5 h; time for which serum levels of naltrexone remained elevated ([8]; equal dose, lot BB-301): < 8 h; concentration at 2 h [9, 11]: 46 ng/mL; concentration at 4 h [9, 11]: 11 ng/mL; concentration at 6 h [9, 11]: 9 ng/mL; concentration at 9 h [9, 11]: 3 ng/mL; Serum concentration of individual rats ([9]; oral capsule, 2 hours): 33 ng/mL and 91 ng/mL and 37 ng/mL and 22 ng/mL; Serum concentration of individual rats ([9]; oral capsule, 4 hours): 6 ng/mL and 25 ng/mL and 12 ng/mL and 3 ng/mL; Serum concentration of individual rats ([9]; oral capsule, 6 hours): 13 ng/mL and 10 ng/mL and 8 ng/mL and 6 ng/mL; Serum concentration of individual rats ([9]; oral capsule, 9 hours): 3 ng/mL and 6 ng/mL and 2 ng/mL and 1 ng/mL; Serum concentration of individual rats ([9]; oral capsule, 12 hours): 2 ng/mL (2×) and 1 ng/mL; Mean serum concentration +/- SD ([9]; oral capsule, 3.6 mg naltrexone, lot BB-272, 12 hours): 1 ± 1 ng/mL; time at which serum levels spiked ([9]; oral capsule, lot BB-272, 2 hours was the first measurement): 2 h
